Experimental data: patent US9618507B2, “Methods of treating rheumatoid arthritis” (Betanien Hospital, priority 2014, dated 2017)
Marks after values point to notes of the source that are not given here. Where a SMILES comes first, the peptide text is derived from it. [ ]: non-standard residue; d: D form. dPhe(4-Cl) = N[C@H](Cc1ccc(Cl)cc1)C(=O)O; d2Nal = N[C@H](Cc1ccc2ccccc2c1)C(=O)O; dCit = NC(=O)NCCC[C@@H](N)C(=O)O; d3Pal = N[C@H](Cc1cccnc1)C(=O)O

How the values were obtained:
RA patients = experiment: Example 1: randomized, double-blind, placebo-controlled study, disease activity (DAS28-CRP, ACR responses, core set measures); type: in vivo, human
Protocol: In this randomized, double-blind, placebo-controlled, single-centre study, males and females aged ≧18 years with RA according to the 1987 revised American College of Rheumatology (ACR) criteria, and with a 28-joint Disease Activity Score based on C-reactive protein (DAS28-CRP)>3.2 were enrolled.
Ethical committee approval was obtained. […] Safety and efficacy visits, with blood sampling, were between 0730 and 0930 h on days 1 (baseline), 2, 3, 4, 5 (visit 5a), 10, and 15. There was an additional visit (visit 5b) between 1930 and 2130 h when maximum GnRH suppression was anticipated.
Predefined secondary end-points included the baseline adjusted between-group difference inTNF-α, ACR20/50/70 responses, European League Against Rheumatism (EULAR) responses, DAS28-CRP <2.6 and ≦3.2, and adverse events.
Menstruating women could only enter the study in the early follicular phase of their menstrual cycle. The concomitant use of stable doses of disease-modifying anti-rheumatic drugs (DMARDs) for at least 8 weeks, stable prednisolone ≦7.5 mg daily for at least 4 weeks, and stable non-steroidal anti-inflammatory drugs (NSAIDs) for at least 2 weeks was allowed if these doses were continued throughout the study. Key exclusion criteria were as follows: pregnancy or breastfeeding females; corticosteroid injections within the trial or 4 weeks prior to screening; biological agents were not permitted during the trial or within 4 weeks prior to inclusion in the trial (with the exception of infliximab or adalimumab which were not permitted within 3 months prior to inclusion in the trial; and rituximab which was not permitted within 6 months prior to inclusion in the trial). A history of hormone-dependent cancers ever or non-hormone-dependent cancers within 5 years prior to screening: infections requiring intravenous antibiotic treatment within 30 days, or oral antibiotics within 14 days prior to enrolment; significant renal or hepatic impairment; and any treatment with hormone replacement therapy or oral contraception were also exclusion criteria.
The Newcombe hybrid score interval was used to estimate 95% confidence intervals (CI) for the difference between proportions (Fagerland M W, et al., Stat Methods Med Res 2011). No adjustments for multiple analyses were made, owing to the highly correlated variables. All clinical, biochemical, and safety data were analyzed by an intention-to-treat analysis. Only predefined endpoints are presented. The intention-to-treat population was predefined in the protocol as all randomized patients who received any injections of study drug. Missing values were <1% and could, as predefined, be imputed with the last observation carried forward. The assumptions of normality needed for analyses were approximately valid. The Spearman rank correlation coefficient (Spearman's rho) was used to estimate the association between pairs of continuous variables.

interleukin-2 = experiment: Example 2: serum cytokine, multiplex high-sensitivity assay, interleukin-2; type: in vivo, human; details: high gonadotropin patients
Protocol: (§1) The protocol-specified primary and secondary intention-to-treat endpoints of the original AGRA trial were analyzed in these post hoc analyses. The primary endpoint was the baseline-adjusted between-group difference in DAS28-CRP (Wells et al., supra) by day 5b. Secondary endpoints included the baseline-adjusted between-group difference in cytokines, proportions of patients achieving at least a 20%, 50%, and 70% improvement on the ACR scale (Felson D T, et al., Arthritis Rheum 1995; 38:727-35), categorical DAS28-CRP (European League Against […] [EULAR]) responses (Wells et al., supra; van Gestel A M, et al., Arthritis Rheum 1996; 39:34-40), DAS28-CRP≦3.2 (Wells et al., supra), DAS28-CRP<2.6 (Wells et al., supra), and the incidence of adverse events. Protocol-specified DAS28 outcomes were preferentially CRP-based rather than erythrocyte sedimentation rate (ESR)-based, as CRP usually changes before ESR. […] Multiplex technology (Luminex Inc., Austin, Tex.) measured these serum cytokines using high-sensitivity assays (sensitivities <0.5 pg/mL, allowing the detection of very low concentrations of cytokines) and identical lots of critical reagent of negligible cross-reactivity <2%, according to manufacturers' instructions (Bio-Rad, Hercules, Calif.). […] To enable intention-to-treat analyses with all patients N=53, non-detectable values were set at the lower limit of detection for cytokines, as is common for CRP values.
(§2) The original power calculation is previously reported (Kass A S, et al., Scand J Rheumatol Epub ahead of print 1 Nov. 2013). Baseline-adjusted between-group differences for all continuous endpoints were assessed with the use of analysis-of-covariance using outcome measurements at predefined time points as response variables, and treatment and baseline measurements as covariates. Dichotomous endpoints were compared with the Pearson chi-square test or Suissa-Shuster exact unconditional test, depending on expected-value distribution (Lydersen S, et al., Stat Med 2009; 28:1159-75). No adjustments for multiple analyses were made, owing to highly correlated endpoints. Due to skewed distributions, between-group changes of natural log-transformed cytokine levels from baseline were compared.

interleukin-10 = experiment: Example 2: serum cytokine, multiplex high-sensitivity assay, interleukin-10; type: in vivo, human; details: high gonadotropin patients
Protocol: as §1, §2

[1] = test system: RA patients with high gonadotropin levels; experiment: Example 2: adverse events in high gonadotropin patients; type: in vivo, human
Protocol: The intention-to-treat population was predefined as all randomised patients who received any study-drug injections. Missing values were <1% and could, as predefined, be imputed with the last-observation-carried-forward. The assumptions of normality needed for analyses were approximately valid. All statistical tests were two-sided (α=0.05) and performed with Stata 12 and StatXact 9. Analyses were performed by an offsite statistician who received locked databases from blinded investigators and laboratories, and the allocation key from the offsite central office.

myeloma cells = details: Wen J, et al., Mol Cancer Ther 2011; cited from earlier work

## CC(=O)N[C@H](Cc1ccc2ccccc2c1)C(=O)N[C@H](Cc1ccc(Cl)cc1)C(=O)N[C@H](Cc1cccnc1)C(=O)N[C@@H](CO)C(=O)N[C@@H](Cc1ccc(O)cc1)C(=O)N[C@H](CCCNC(N)=O)C(=O)N[C@@H](CC(C)C)C(=O)N[C@@H](CCCNC(=N)N)C(=O)N1CCC[C@H]1C(=O)N[C@H](C)C(N)=O [cetrorelix] (Ac-[d2Nal][dPhe(4-Cl)][d3Pal]SY[dCit]LRP[dA]-NH2)
RA patients; all patients, baseline adjusted, day 5, 95% CI −0.04 to 0.57, p 0.091
  DAS28-CRP between-group difference vs placebo: 0.26
RA patients; all patients, by day 5, placebo 0%
  patients achieving DAS28-CRP<2.6: 13%
RA patients; all patients, by day 5, placebo 18%
  patients achieving ACR20 responses: 40%
RA patients; all patients, cetrorelix n=48, 5 mg/day s.c. days 1-2, 3 mg/day days 3-5, day 5
  DAS28-CRP reduction by day 5: 0.82
RA patients; all patients, day 5, FIG. 1A
  ACR50/70 responses compared with placebo: More patients reached ACR50/70 responses
RA patients; all patients, except physician global assessment
  core set measures of disease activity compared with placebo: non-significant greater improvements
RA patients; cetrorelix group, p 0.40
  DAS28-CRP reduction, prednisolone users (n 24) vs non-users (n 24): did not differ
interleukin-2; N = 27, mean ± SD
  IL-2 level, Final Day 15: −3.39 ± 2.9 log pg/mL
interleukin-2; N = 27, placebo +0.02
  IL-2 Change from baseline by day 15: −0.42 log pg/mL
interleukin-2; by day 15, P=0.088
  interleukin-2 change compared with placebo: decreased non-significantly
interleukin-2; day 15, 95% CI (−1.09, 0.08)
  IL-2 Baseline-Adjusted Between-Group Difference: -0.51 log pg/mL
interleukin-10; N = 27, mean ± SD
  IL-10 level, Final Day 15: −0.31 ± 2.1 log pg/mL
interleukin-10; N = 27, placebo +0.13
  IL-10 Change from baseline by day 15: −0.40 log pg/mL
interleukin-10; by day 15, P=0.020
  interleukin-10 change compared with placebo: significantly decreased
interleukin-10; day 15, 95% CI (0.10, 1.08), P < 0.05
  IL-10 Baseline-Adjusted Between-Group Difference: 0.59‡ log pg/mL
[1]; N = 27
  Adverse events: Headache: 2 (7.4) no. %
  Adverse events: Injection site discomfort: 2 (7.4) no. %
  Adverse events: Nausea: 0 no. %
[1]; high gonadotropin patients
  Adverse events severity: mild
Myeloma cells
  pro-inflammatory cytokine gene expression through GnRH receptors: directly decrease
